According to patent US12660819B2, “Herbicidal derivatives” (SYNGENTA CROP PROTECTION AG, priority 2020, dated 2026):

Key:
Type in all cases: in vivo
Setaria faberi (SETFA) [1] = assay: Pre-emergence Test (glasshouse, percentage damage to the plant); conditions: 1000 g/ha unless otherwise stated, five-point scale
[2] = test system: Ipomoea hederacea (IPOHE); assay: as above; conditions: 1000 g/ha unless otherwise stated, five-point scale
[3] = test system: Amaranthus retoflexus (AMARE); assay: Post-emergence Test (glasshouse, percentage damage to the plant); conditions: post-emergence spray, 1000 g/ha unless otherwise stated, evaluated after 13 days
Method in brief: (§1)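 Seeds sown in pots in glasshouse (24/16 °C day/night, 14 h light, 65% humidity), then sprayed with compound at 1000 g/ha unless stated, from acetone/water 50:50 with 0.5% Tween 20. Damage assessed 13 days later on five-point scale (1=0–20% to 5=81–100%).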

Zea mays (ZEAMX) [4] = assay: as above; conditions: post-emergence spray, 1000 g/ha unless otherwise stated, evaluated after 13 days
Method in brief: (§2)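 Seeds sown in standard soil in a glasshouse (24/16 °C day/night, 14 h light, 65% humidity), then sprayed with an aqueous solution of the compound formulated in acetone/water 50:50 with 0.5% Tween 20 at 1000 g/ha unless otherwise stated. Percentage damage was scored after 13 days on a five-point scale (5=81-100%; 1=0-20%).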

[5] = test system: Abutilon theophrasti (ABUTH); assay: as above; conditions: post-emergence spray, 1000 g/ha unless otherwise stated, evaluated after 13 days
Method in brief: as §1

[6] = test system: Echinochloa crus-galli (ECHCG); assay: as above; conditions: post-emergence spray, 1000 g/ha unless otherwise stated, evaluated after 13 days
Method in brief: as §1

Setaria faberi (SETFA) [7] = assay: as above; conditions: post-emergence spray, 1000 g/ha unless otherwise stated, evaluated after 13 days
Method in brief: as §2

[8] = test system: Ipomoea hederacea (IPOHE); assay: as above; conditions: post-emergence spray, 1000 g/ha unless otherwise stated, evaluated after 13 days
Method in brief: as §2

[9] = test system: Amaranthus retoflexus (AMARE); assay: Pre-emergence Test (glasshouse, percentage damage to the plant); conditions: 1000 g/ha unless otherwise stated, five-point scale
[10] = test system: Abutilon theophrasti (ABUTH); assay: as above; conditions: 1000 g/ha unless otherwise stated, five-point scale
[11] = test system: Echinochloa crus-galli (ECHCG); assay: as above; conditions: 1000 g/ha unless otherwise stated, five-point scale
Zea mays (ZEAMX) [12] = assay: as above; conditions: 1000 g/ha unless otherwise stated, five-point scale

SMILES	percentage damage to the plant, SETFA (Setaria faberi (SETFA) [1])	percentage damage to the plant, IPOHE [2]	Post-emergence Test AMARE, percentage damage to the plant (five-point scale) [3]	Post-emergence Test ZEAMX, percentage damage to the plant (five-point scale) (Zea mays (ZEAMX) [4])	Post-emergence Test ABUTH, percentage damage to the plant (five-point scale) [5]	Post-emergence Test ECHCG, percentage damage to the plant (five-point scale) [6]	Post-emergence Test SETFA, percentage damage to the plant (five-point scale) (Setaria faberi (SETFA) [7])	Post-emergence Test IPOHE, percentage damage to the plant (five-point scale) [8]	percentage damage to the plant, AMARE [9]	percentage damage to the plant, ABUTH [10]	percentage damage to the plant, ECHCG [11]	percentage damage to the plant, ZEAMX (Zea mays (ZEAMX) [12])
CCOc1cc(-c2c(C)n(CC)c(-c3ccc(Cl)c(Cl)c3)c(C(=O)O)c2=O)ccc1C(F)(F)F [Compound 65, 2-(3,4-dichlorophenyl)-5-[3-ethoxy-4-(trifluoromethyl)phenyl]-1-ethyl-6-methyl-4-oxo-pyridine-3-carboxylic acid]	1 (1=0-20%)	1 (1=0-20%)	1 (1=0-20%)	1 (1=0-20%)	1 (1=0-20%)	1 (1=0-20%)	1 (1=0-20%)	1 (1=0-20%)	1 (1=0-20%)	1 (1=0-20%)	1 (1=0-20%)	1 (1=0-20%)
CCn1c(C)c(-c2ccc(S(=O)(=O)CC)cc2)c(=O)c(C(=O)O)c1-c1ccc(Cl)c(Cl)c1 [Compound 66, 2-(3,4-dichlorophenyl)-1-ethyl-5-(4-ethylsulfonylphenyl)-6-methyl-4-oxo-pyridine-3-carboxylic acid]	4 (4=61-80%)	1 (1=0-20%)	1 (1=0-20%)	1 (1=0-20%)	3 (3=41-60%)	2 (2=21-40%)	3 (3=41-60%)	2 (2=21-40%)	1 (1=0-20%)	1 (1=0-20%)	2 (2=21-40%)	1 (1=0-20%)
CCn1c(C)c(-c2cc(C)cc(C(F)(F)F)c2)c(=O)c(C(=O)O)c1-c1ccc(Cl)c(Cl)c1 [Compound 67, 2-(3,4-dichlorophenyl)-1-ethyl-6-methyl-5-[3-methyl-5-(trifluoromethyl)phenyl]-4-oxo-pyridine-3-carboxylic acid]	1 (1=0-20%)	1 (1=0-20%)	1 (1=0-20%)	1 (1=0-20%)	2 (2=21-40%)	1 (1=0-20%)	1 (1=0-20%)	1 (1=0-20%)	1 (1=0-20%)	1 (1=0-20%)	1 (1=0-20%)	1 (1=0-20%)
CCn1c(C)c(C2=CCCC2)c(=O)c(C(=O)O)c1-c1ccc(Cl)c(Cl)c1 [Compound 68, 5-(cyclopenten-1-yl)-2-(3,4-dichlorophenyl)-1-ethyl-6-methyl-4-oxo-pyridine-3-carboxylic acid]	5 (5=81-100%)	2 (2=21-40%)	1 (1=0-20%)	1 (1=0-20%)	3 (3=41-60%)	2 (2=21-40%)	3 (3=41-60%)	3 (3=41-60%)	1 (1=0-20%)	1 (1=0-20%)	1 (1=0-20%)	1 (1=0-20%)
CCn1c(C)c(-c2cc(Cl)nc(OC(C)C)c2)c(=O)c(C(=O)O)c1-c1ccc(Cl)c(Cl)c1 [Compound 69, 5-(2-chloro-6-isopropoxy-4-pyridyl)-2-(3,4-dichlorophenyl)-1-ethyl-6-methyl-4-oxo-pyridine-3-carboxylic acid]	4 (4=61-80%)	4 (4=61-80%)	2 (2=21-40%)	1 (1=0-20%)	2 (2=21-40%)	1 (1=0-20%)	3 (3=41-60%)	3 (3=41-60%)	1 (1=0-20%)	2 (2=21-40%)	1 (1=0-20%)	2 (2=21-40%)
CCn1c(C)c(-c2cc(OC)cc(OC)c2)c(=O)c(C(=O)O)c1-c1ccc(Cl)c(Cl)c1 [Compound 70, 2-(3,4-dichlorophenyl)-5-(3,5-dimethoxyphenyl)-1-ethyl-6-methyl-4-oxo-pyridine-3-carboxylic acid]	3 (3=41-60%)	1 (1=0-20%)	1 (1=0-20%)	2 (2=21-40%)	2 (2=21-40%)	2 (2=21-40%)	3 (3=41-60%)	1 (1=0-20%)	1 (1=0-20%)	1 (1=0-20%)	1 (1=0-20%)	1 (1=0-20%)
CCn1c(C)c(-c2cc(C)c(OC)c(C)c2)c(=O)c(C(=O)O)c1-c1ccc(Cl)c(Cl)c1 [Compound 71, 2-(3,4-dichlorophenyl)-1-ethyl-5-(4-methoxy-3,5-dimethyl-phenyl)-6-methyl-4-oxo-pyridine-3-carboxylic acid]	2 (2=21-40%)	1 (1=0-20%)	1 (1=0-20%)	1 (1=0-20%)	2 (2=21-40%)	1 (1=0-20%)	1 (1=0-20%)	1 (1=0-20%)	2 (2=21-40%)	1 (1=0-20%)	1 (1=0-20%)	1 (1=0-20%)
CCNC(=O)c1cc(-c2c(C)n(CC)c(-c3ccc(Cl)c(Cl)c3)c(C(=O)O)c2=O)ccc1Cl [Compound 72, 5-[4-chloro-3-(ethylcarbamoyl)phenyl]-(3,4-dichlorophenyl)-1-ethyl-6-methyl-4-oxo-pyridine-3-carboxylic acid]	1 (1=0-20%)	1 (1=0-20%)	1 (1=0-20%)	1 (1=0-20%)	1 (1=0-20%)	1 (1=0-20%)	1 (1=0-20%)	1 (1=0-20%)	1 (1=0-20%)	1 (1=0-20%)	1 (1=0-20%)	1 (1=0-20%)
CCn1c(C)c(-c2cc(F)c(F)c(F)c2)c(=O)c(C(=O)O)c1-c1ccc(Cl)c(Cl)c1 [Compound 73, 2-(3,4-dichlorophenyl)-1-ethyl-6-methyl-4-oxo-5-(3,4,5-trifluorophenyl)pyridine-3-carboxylic acid]	4 (4=61-80%)	2 (2=21-40%)	2 (2=21-40%)	2 (2=21-40%)	3 (3=41-60%)	3 (3=41-60%)	4 (4=61-80%)	3 (3=41-60%)	1 (1=0-20%)	2 (2=21-40%)	2 (2=21-40%)	1 (1=0-20%)
